Assays:
RL = experiment: Combination study, ATPLite 72 h, dose matrix (Synergy Score, CI50)
DOHH2 = experiment: Compound 1 with dexamethasone, CellTiter-Glo viability 72 h, combination index; assay type: cell-based; conditions: DOHH2
Description: The effects of Compound 1 with dexamethasone were examined in a panel of cell lines. Cells were cultured and assayed as follows. Compound 1 was serially diluted with cell culture medium and various DMSO concentrations. The top concentration of Compound 1 exposed to cells was 3 uM for cell lines other than WSU-NHL and DOHH2. For WSU-NHL and DOHH2 cell lines, the top concentration of Compound 1 exposed to the cells was 0.3 uM. Dexamethasone was serially diluted in culture media and phosphate buffered saline (PBS). The top concentration of dexamethasone used on cells was 3 uM. Cells were at least 73% viable and were counted and diluted for plating at a density of about 92,000 cell/mL, 130 uL cells per well in 96 well plates for SUDHL6, Karpas 422, SUDHL4, WSU-NHL, RL, and DOHH2 cell lines. The SUDHL10 cell line was plated at a density of about 46,000 cells/mL, 130 uL cells per well in 96 well plates.
Various concentrations of Compound 1 and various combinations of dexamethasone were added to various wells of cells. Single agents (Compound 1 or dexamethasone alone) were also added to some wells of cells. Cells were incubated with compounds for 72 hours. To assay for effects of the compounds on cell viability, a CellTiter-Glo® luminescent cell viability assay (commercially available) was used. To each plate of cells, 100 uL CellTiter-Glo reagent was added, incubated, and luminescence quantified using a […].
The results for cell line DOHH2 are depicted in FIG. 11 and Table 11. […] Table 11 depicts combination index (CI) values for different combinations of dexamethasone/Compound 1 concentrations.

C[C@H](Nc1ncnc2[nH]cnc12)c1cc2cccc(Cl)c2c(=O)n1-c1ccccc1 [Compound 1, (S)-3-(1-((9H-purin-6-yl)amino)ethyl)-8-chloro-2-phenylisoquinolin-1(2H)-one]
A3 (A3=>3): Synergy Score growth inhibition (RL; combination with Dexamethasone) | Synergy Score inhibition (RL; combination with Dexamethasone)
T (T=0.5 to <0.7): CI50 inhibition (RL; combination with Dexamethasone) | CI50 growth inhibition (RL; combination with LEE011)
C (C = 0.5 to <0.7): combination index (CI) (DOHH2; Compound 1 0.137174 nM + Dexamethasone 111.1111 nM) | combination index (CI) (DOHH2; Compound 1 0.411523 nM + Dexamethasone 111.1111 nM) | combination index (CI) (DOHH2; Compound 1 11.11111 nM + Dexamethasone 37.03704 nM) | combination index (CI) (DOHH2; Compound 1 100 nM + Dexamethasone 12.34568 nM)
S (S=0.01 to <0.5): CI50 growth inhibition (RL; combination with PCI-32765) | CI50 inhibition (RL; combination with PCI-32765) | CI50 growth inhibition (RL; combination with PD-0332991) | CI50 inhibition (RL; combination with PD-0332991)
A1 (A1=0.0001 to <1): Synergy Score inhibition (RL; combination with LEE011)
E (E = >1): combination index (CI) (DOHH2; Compound 1 0.137174 nM + Dexamethasone 1.371742 nM) | combination index (CI) (DOHH2; Compound 1 0.137174 nM + Dexamethasone 4.115226 nM) | combination index (CI) (DOHH2; Compound 1 0.137174 nM + Dexamethasone 12.34568 nM) | combination index (CI) (DOHH2; Compound 1 0.137174 nM + Dexamethasone 37.03704 nM) | combination index (CI) (DOHH2; Compound 1 0.411523 nM + Dexamethasone 1.371742 nM) | combination index (CI) (DOHH2; Compound 1 0.411523 nM + Dexamethasone 4.115226 nM) | combination index (CI) (DOHH2; Compound 1 0.411523 nM + Dexamethasone 12.34568 nM) | combination index (CI) (DOHH2; Compound 1 0.411523 nM + Dexamethasone 37.03704 nM) | combination index (CI) (DOHH2; Compound 1 1.234568 nM + Dexamethasone 1.371742 nM) | combination index (CI) (DOHH2; Compound 1 1.234568 nM + Dexamethasone 4.115226 nM) | combination index (CI) (DOHH2; Compound 1 1.234568 nM + Dexamethasone 12.34568 nM) | combination index (CI) (DOHH2; Compound 1 1.234568 nM + Dexamethasone 37.03704 nM) | combination index (CI) (DOHH2; Compound 1 3.703704 nM + Dexamethasone 4.115226 nM) | combination index (CI) (DOHH2; Compound 1 3.703704 nM + Dexamethasone 12.34568 nM) | combination index (CI) (DOHH2; Compound 1 11.11111 nM + Dexamethasone 4.115226 nM) | combination index (CI) (DOHH2; Compound 1 11.11111 nM + Dexamethasone 12.34568 nM)
A2 (A2=1 to <3): Synergy Score growth inhibition (RL; combination with LEE011) | Synergy Score growth inhibition (RL; combination with PCI-32765) | Synergy Score inhibition (RL; combination with PCI-32765) | Synergy Score growth inhibition (RL; combination with PD-0332991) | Synergy Score inhibition (RL; combination with PD-0332991)
A (A = 0.0001 to <0.3): combination index (CI) (DOHH2; Compound 1 0.137174 nM + Dexamethasone 333.3333 nM) | combination index (CI) (DOHH2; Compound 1 0.137174 nM + Dexamethasone 1000 nM) | combination index (CI) (DOHH2; Compound 1 0.137174 nM + Dexamethasone 3000 nM) | combination index (CI) (DOHH2; Compound 1 0.411523 nM + Dexamethasone 1000 nM) | combination index (CI) (DOHH2; Compound 1 0.411523 nM + Dexamethasone 3000 nM) | combination index (CI) (DOHH2; Compound 1 1.234568 nM + Dexamethasone 333.3333 nM) | combination index (CI) (DOHH2; Compound 1 1.234568 nM + Dexamethasone 1000 nM) | combination index (CI) (DOHH2; Compound 1 1.234568 nM + Dexamethasone 3000 nM) | combination index (CI) (DOHH2; Compound 1 3.703704 nM + Dexamethasone 111.1111 nM) | combination index (CI) (DOHH2; Compound 1 3.703704 nM + Dexamethasone 333.3333 nM) | combination index (CI) (DOHH2; Compound 1 3.703704 nM + Dexamethasone 1000 nM) | combination index (CI) (DOHH2; Compound 1 3.703704 nM + Dexamethasone 3000 nM) | combination index (CI) (DOHH2; Compound 1 11.11111 nM + Dexamethasone 111.1111 nM) | combination index (CI) (DOHH2; Compound 1 11.11111 nM + Dexamethasone 333.3333 nM) | combination index (CI) (DOHH2; Compound 1 11.11111 nM + Dexamethasone 1000 nM) | combination index (CI) (DOHH2; Compound 1 11.11111 nM + Dexamethasone 3000 nM) | combination index (CI) (DOHH2; Compound 1 33.33333 nM + Dexamethasone 37.03704 nM) | combination index (CI) (DOHH2; Compound 1 33.33333 nM + Dexamethasone 111.1111 nM) | combination index (CI) (DOHH2; Compound 1 33.33333 nM + Dexamethasone 333.3333 nM) | combination index (CI) (DOHH2; Compound 1 33.33333 nM + Dexamethasone 1000 nM) | combination index (CI) (DOHH2; Compound 1 33.33333 nM + Dexamethasone 3000 nM) | combination index (CI) (DOHH2; Compound 1 100 nM + Dexamethasone 4.115226 nM) | combination index (CI) (DOHH2; Compound 1 100 nM + Dexamethasone 37.03704 nM) | combination index (CI) (DOHH2; Compound 1 100 nM + Dexamethasone 111.1111 nM) | combination index (CI) (DOHH2; Compound 1 100 nM + Dexamethasone 333.3333 nM) | combination index (CI) (DOHH2; Compound 1 100 nM + Dexamethasone 1000 nM) | combination index (CI) (DOHH2; Compound 1 100 nM + Dexamethasone 3000 nM) | combination index (CI) (DOHH2; Compound 1 300 nM + Dexamethasone 12.34568 nM) | combination index (CI) (DOHH2; Compound 1 300 nM + Dexamethasone 37.03704 nM) | combination index (CI) (DOHH2; Compound 1 300 nM + Dexamethasone 111.1111 nM) | combination index (CI) (DOHH2; Compound 1 300 nM + Dexamethasone 333.3333 nM) | combination index (CI) (DOHH2; Compound 1 300 nM + Dexamethasone 1000 nM) | combination index (CI) (DOHH2; Compound 1 300 nM + Dexamethasone 3000 nM)
U (U=0.7 to <1): CI50 inhibition (RL; combination with LEE011)
B (B = 0.3 to <0.5): combination index (CI) (DOHH2; Compound 1 0.411523 nM + Dexamethasone 333.3333 nM) | combination index (CI) (DOHH2; Compound 1 1.234568 nM + Dexamethasone 111.1111 nM) | combination index (CI) (DOHH2; Compound 1 3.703704 nM + Dexamethasone 1.371742 nM) | combination index (CI) (DOHH2; Compound 1 11.11111 nM + Dexamethasone 1.371742 nM) | combination index (CI) (DOHH2; Compound 1 33.33333 nM + Dexamethasone 1.371742 nM) | combination index (CI) (DOHH2; Compound 1 33.33333 nM + Dexamethasone 4.115226 nM) | combination index (CI) (DOHH2; Compound 1 100 nM + Dexamethasone 1.371742 nM) | combination index (CI) (DOHH2; Compound 1 300 nM + Dexamethasone 1.371742 nM) | combination index (CI) (DOHH2; Compound 1 300 nM + Dexamethasone 4.115226 nM)
D (D = 0.7 to <1): combination index (CI) (DOHH2; Compound 1 3.703704 nM + Dexamethasone 37.03704 nM) | combination index (CI) (DOHH2; Compound 1 33.33333 nM + Dexamethasone 12.34568 nM)

Source: patent US20240325398A1, “COMBINATION THERAPIES” (Infinity Pharmaceuticals, Inc., priority 2014, published 2024)
